# In patent US9617310B2 (priority 2013, dated 2017):
# Assays:
# NS3 genotype 3a protease = biological target: T1, NS3 genotype 3a protease (UniProt Q81258); assay: Ki determination, NS3 protease genotype 3a (fluorogenic depsipeptide substrate); type: biochemical, hepatitis C virus; details: NS3 protease domain genotype 3a, NS4A peptide
# T1 construct: Purified NS3 protease domain (amino acids 1-181) of the genotype 1b and 3a virus were generated as above; fused on or other part: N-terminal hexahistidine tag with an rTEV protease cleavage site (vector p28-N6H-Tev-NS3(181)3)
# T1 sequence (Q81258 1033-1663): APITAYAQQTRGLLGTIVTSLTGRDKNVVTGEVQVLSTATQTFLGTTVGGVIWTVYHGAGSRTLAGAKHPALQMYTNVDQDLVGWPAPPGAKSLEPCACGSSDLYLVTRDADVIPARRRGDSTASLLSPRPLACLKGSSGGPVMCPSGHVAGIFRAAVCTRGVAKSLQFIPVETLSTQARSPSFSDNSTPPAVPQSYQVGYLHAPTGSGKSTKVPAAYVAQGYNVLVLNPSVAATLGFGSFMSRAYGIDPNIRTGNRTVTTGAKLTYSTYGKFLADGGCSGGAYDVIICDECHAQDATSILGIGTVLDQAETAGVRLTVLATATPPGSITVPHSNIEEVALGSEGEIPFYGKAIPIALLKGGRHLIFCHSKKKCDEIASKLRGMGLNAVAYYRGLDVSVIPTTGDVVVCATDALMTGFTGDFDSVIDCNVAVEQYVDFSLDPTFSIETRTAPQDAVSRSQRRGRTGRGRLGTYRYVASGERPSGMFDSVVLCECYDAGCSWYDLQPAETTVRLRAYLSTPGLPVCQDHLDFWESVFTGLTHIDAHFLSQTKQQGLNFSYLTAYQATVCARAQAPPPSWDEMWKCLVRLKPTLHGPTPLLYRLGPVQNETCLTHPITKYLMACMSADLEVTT
# Method in brief: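 NS3 protease domain (aa 1-181), 50 pM (1b) or 200 pM (3a), with 20 μM NS4A peptide, pre-incubated 1 h with inhibitor (100 nM–5 pM); 4 μM (1b) or 2 μM (3a) FRET depsipeptide substrate, room temperature, pH-unspecified HEPES buffer with 40% glycerol, 10% DMSO. Steady-state rates at 90–120 min (ex 340/em 490); Morrison fit gave Ki^app, corrected to Ki via substrate/Km.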
# [1] = system: genotype 1a stable HCV replicon (H77) in Huh-7-derived cells; assay: Stable subgenomic HCV replicon, genotype 1a, Renilla luciferase; type: cell-based; details: Hepatitis C virus, stable replicon genotype 1a, 72 h, read-out: EC50 1A RLUC
# Method in brief: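 Replicons carry hRLuc-neo, EMCV IRES and NS3-NS5B with adaptive mutations: 1a H77 P1496L/S2204I, 1b Con1 E1202G/T1280I/K1846T, 4a ED43 Q1691R/S2204I. EC50 came from non-linear regression versus DMSO and a triple-inhibitor full-inhibition control.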
# [2] = system: genotype 3a stable HCV replicon (S52) in Huh-7-derived cells; assay: Stable subgenomic HCV replicon, genotype 3a, Renilla luciferase; type: cell-based; details: Hepatitis C virus, 72 h, read-out: EC50 3A RLUC
# [3] = system: genotype 1a (H77) wild-type transient HCV replicon in Huh-7-derived cells; assay: Transient-transfected HCV replicon, genotype 1a wild type; type: cell-based; details: Hepatitis C virus; transient-transfected replicon genotype 1a wild type, 72 h; read-out: EC50 1A WT
# [4] = system: genotype 1b wild-type transient HCV replicon in Huh-7-derived cells; assay: Transient-transfected HCV replicon, genotype 1b wild type; type: cell-based; details: Hepatitis C virus; transient-transfected replicon genotype 1b wild type, 72 h; read-out: EC50 1B WT
Compound,Ki (NS3 genotype 3a protease) [nM],EC50 [1] [nM],EC50 [2] [nM],EC50 [3] [nM],EC50 [4] [nM]
"COc1ccc2nc3c(nc2c1)O[C@@H]1C[C@@H](C(=O)N[C@]2(C(=O)NS(=O)(=O)C4(C)CC4)C[C@H]2C(F)F)N(C1)C(=O)[C@H](C(C)(C)C)NC(=O)O[C@@H]1[C@H]2CC[C@H](C2)[C@H]1CCCCC3 [Example 5, (1R,4S,4aR,8S,11S,13R,25aR)-8-tert-butyl-N-[(1R,2R)-2-(difluoromethyl)-1-{[(1-methylcyclopropyl)sulfonyl]carbamoyl}cyclopropyl]-17-methoxy-6,9-dioxo-2,3,4,4a,6,7,8,9,12,13,21,22,23,24,25,25a-hexadecahydro-1H,11H-1, 4:10,13-dimethanoquinoxalino[2,3-k][1,10,3,6]benzodioxadiazacyclononadecine-11-carboxamide]",0.27,5,473,4.2,2.1
"CC(C)(C)[C@@H]1NC(=O)O[C@@H]2C[C@@H]3C[C@@H]3[C@H]2CCCCCc2nc3ccc(F)cc3nc2O[C@@H]2C[C@@H](C(=O)N[C@]3(C(=O)NS(=O)(=O)C4CC4)C[C@H]3C(F)F)N(C2)C1=O [Example 12, (1aS,2aR,6S,9S,11R,23aR,23bS)-6-tert-butyl-N-[(1R,2R)-1-[(cyclopropylsulfonyl)carbamoyl]-2-(difluoromethyl)cyclopropyl]-15-fluoro-4,7-dioxo-1a,2,2a,4,5,6,7,10,11,19,20,21,22,23,23a,23b-hexadecahydro-1H,9H-8,11-methanocyclopropa[4′,5′]cyclopenta[1′,2′:18,19][1,10,3,6]dioxadiazacyclononadecino[11,12-b]quinoxaline-9-carboxamide]",0.09,1.7,89,0.8,0.64
"COc1ccc2nc3c(nc2c1)O[C@@H]1C[C@@H](C(=O)N[C@]2(C(=O)NS(=O)(=O)C4CC4)C[C@H]2C(F)F)N(C1)C(=O)[C@H](C(C)(C)C)NC(=O)O[C@@H]1C[C@@H]2C[C@@H]2[C@H]1CCCCC3 [Example 1, (1aS,2aR,6S,9S,11R,23aR,23bS)-6-tert-butyl-N-[(1R,2R)-1-[(cyclopropylsulfonyl)carbamoyl]-2-(difluoromethyl)cyclopropyl]-15-methoxy-4,7-dioxo-1a,2,2a,4,5,6,7,10,11,19,20,21,22,23,23a,23b-hexadecahydro-1H,9H-8,11-methanocyclopropa[4′,5′]cyclopenta[1′,2′:18,19][1,10,3,6]dioxadiazacyclononadecino[11,12-b]quinoxaline-9-carboxamide]",0.03,1.1,23,1,0.61
"CC(C)(C)[C@@H]1NC(=O)O[C@@H]2C[C@@H]3C[C@@H]3[C@H]2CCCCCc2nc3ccc(F)cc3nc2O[C@@H]2C[C@@H](C(=O)N[C@]3(C(=O)NS(=O)(=O)C4(C)CC4)C[C@H]3C(F)F)N(C2)C1=O [Example 11, (1aS,2aR,6S,9S,11R,23aR,23bS)-6-tert-butyl-N-[(1R,2R)-2-(difluoromethyl)-1-{[(1-methylcyclopropyl)sulfonyl]carbamoyl}cyclopropyl]-15-fluoro-4,7-dioxo-1a,2,2a,4,5,6,7,10,11,19,20,21,22,23,23a,23b-hexadecahydro-1H,9H-8,11-methanocyclopropa[4′,5′]cyclopenta[1′,2′:18,19][1,10,3,6]dioxadiazacyclononadecino[11,12-b]quinoxaline-9-carboxamide]",0.09,1.4,61,1.4,0.78
"COc1ccc2nc3c(nc2c1)O[C@@H]1C[C@@H](C(=O)N[C@]2(C(=O)NS(=O)(=O)C4CC4)C[C@H]2CC(F)F)N(C1)C(=O)[C@H](C(C)(C)C)NC(=O)O[C@@H]1C[C@@H]2C[C@@H]2[C@H]1CCCCC3 [Example 3, (1aS,2aR,6S,9S,11R,23aR,23bS)-6-tert-butyl-N-[(1R,2S)-1-[(cyclopropylsulfonyl)carbamoyl]-2-(2,2-difluoroethyl)cyclopropyl]-15-methoxy-4,7-dioxo-1a,2,2a,4,5,6,7,10,11,19,20,21,22,23,23a,23b-hexadecahydro-1H,9H-8,11-methanocyclopropa[4′,5′]cyclopenta[1′,2′:18,19][1,10,3,6]dioxadiazacyclononadecino[11,12-b]quinoxaline-9-carboxamide]",0.21,3.8,194,5.1,2.9
"CC(C)(C)[C@@H]1NC(=O)O[C@@H]2C[C@@H]3C[C@@H]3[C@H]2CCCCC(F)(F)c2nc3cc(F)c(F)cc3nc2O[C@@H]2C[C@@H](C(=O)N[C@]3(C(=O)NS(=O)(=O)C4CC4)C[C@H]3C(F)F)N(C2)C1=O (racemic) [Example 15, (1aS,2aR,6S,9S,11R,23aR,23bS)-6-tert-butyl-N-[(1R,2R)-1-[(cyclopropylsulfonyl)carbamoyl]-2-(difluoromethyl)cyclopropyl]-15,16,19,19-tetrafluoro-4,7-dioxo-1a,2,2a,4,5,6,7,10,11,19,20,21,22,23,23a,23b-hexadecahydro-1H,9H-8,11-methanocyclopropa[4′,5′]cyclopenta[1′,2′:18,19][1,10,3,6]dioxadiazacyclononadecino[11,12-b]quinoxaline-9-carboxamide]",0.05,3.5,30,1.6,1.3
"COc1ccc2nc3c(nc2c1)O[C@@H]1C[C@@H](C(=O)N[C@]2(C(=O)NS(=O)(=O)C4(C)CC4)C[C@H]2C(F)F)N(C1)C(=O)[C@H](C(C)(C)C)NC(=O)O[C@H]1[C@H](CCCCC3)C[C@H]2C[C@H]21 [Example 8, (1aR,1bS,5S,8S,10R,22aR,23aR)-5-tert-butyl-N-[(1R,2R)-2-(difluoromethyl)-1-{[(1-methylcyclopropyl)sulfonyl]carbamoyl}cyclopropyl]-14-methoxy-3,6-dioxo-1a,1b,3,4,5,6,9,10,18,19,20,21,22,22a, 23,23a-hexadecahydro-1H,8H-7,10-methanocyclopropa[3′,4′]cyclopenta [1′,2′:18,19][1,10,3,6]dioxadiazacyclononadecino[11,12-b]quinoxaline-8-carboxamide]",8.5,76,2450,72,33
